Measured values published in the supplement of paper PMC10733146.

Legend:
Test in all cases: viability relative to DMSO control (fraction); higher = less drug effect (more viable cells)
Details in all cases: 48 h
[1] = tested on: primary CLL patient cells (S031)
Summary of the method: (§1)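 Primary mononuclear tumour cells (Ficoll-isolated from blood or bone marrow, or processed lymph node; fresh or cryopreserved) were plated at 4 × 10^4 cells per well in 384-well plates with pre-plated compounds at five concentrations, one well each. Medium was RPMI-1640 with penicillin/streptomycin, L-glutamine and human serum, at 37 °C and 5% CO2 for 48 h. Viability was read as CellTiter-Glo luminescence relative to the median of 16 inner DMSO wells.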

[2] = tested on: primary B-PLL patient cells (S016)
Summary of the method: as §1

[3] = tested on: primary AML patient cells (S071)
Summary of the method: as §1

[4] = tested on: primary ALL patient cells (S088)
Summary of the method: as §1

[5] = tested on: primary DLBCL patient cells (S076)
Summary of the method: as §1

[6] = tested on: primary AML patient cells (S060)
Summary of the method: as §1

[7] = tested on: primary DLBCL patient cells (S082)
Summary of the method: as §1

[8] = tested on: primary AML patient cells (S085)
Summary of the method: as §1

[9] = tested on: primary DLBCL patient cells (S049)
Summary of the method: as §1

[10] = tested on: primary T-NHL patient cells (S058)
Summary of the method: as §1

[11] = tested on: primary AML patient cells (S007)
Summary of the method: as §1

[12] = tested on: primary AML patient cells (S019)
Summary of the method: as §1

[13] = tested on: primary AML patient cells (S011)
Summary of the method: as §1

[14] = tested on: primary FL patient cells (S087)
Summary of the method: as §1

[15] = tested on: primary AML patient cells (S091)
Summary of the method: as §1

[16] = tested on: primary AML patient cells (S037)
Summary of the method: as §1

[17] = tested on: primary AML patient cells (S089)
Summary of the method: as §1

[18] = tested on: primary MCL patient cells (S041)
Summary of the method: as §1

Nc1ccc2ncnc(NCCc3ccc(Oc4ccccc4)cc3)c2c1 [EVP4593]
viability ([1]; 0.008 µM): 0.884 | viability ([1]; 0.04 µM): 0.854 | viability ([1]; 0.2 µM): 0.803 | viability ([1]; 1 µM): 0.686 | viability ([1]; 5 µM): 0.601 | viability ([2]; 0.008 µM): 0.929 | viability ([2]; 0.04 µM): 0.874 | viability ([2]; 0.2 µM): 0.8 | viability ([2]; 1 µM): 0.716 | viability ([2]; 5 µM): 0.713 | viability ([3]; 0.008 µM): 0.768 | viability ([3]; 0.04 µM): 0.684 | viability ([3]; 0.2 µM): 0.351 | viability ([3]; 1 µM): 0.158 | viability ([3]; 5 µM): 0.121 | viability ([4]; 0.008 µM): 0.151 | viability ([4]; 0.04 µM): 0.168 | viability ([4]; 0.2 µM): 0.147 | viability ([4]; 1 µM): 0.108 | viability ([4]; 5 µM): 0.088 | viability ([5]; 0.008 µM): 0.999 | viability ([5]; 0.04 µM): 0.989 | viability ([5]; 0.2 µM): 0.741 | viability ([5]; 1 µM): 0.657 | viability ([5]; 5 µM): 0.551 | viability ([6]; 0.008 µM): 1.01 | viability ([6]; 0.04 µM): 1 | viability ([6]; 0.2 µM): 0.97 | viability ([6]; 1 µM): 0.961 | viability ([6]; 5 µM): 0.966 | viability ([7]; 0.008 µM): 0.83 | viability ([7]; 0.04 µM): 0.736 | viability ([7]; 0.2 µM): 0.588 | viability ([7]; 1 µM): 0.462 | viability ([7]; 5 µM): 0.452 | viability ([8]; 0.008 µM): 2.31 | viability ([8]; 0.04 µM): 0.901 | viability ([8]; 0.2 µM): 1.11 | viability ([8]; 1 µM): 0.666 | viability ([8]; 5 µM): 0.55 | viability ([9]; 0.008 µM): 0.89 | viability ([9]; 0.04 µM): 0.763 | viability ([9]; 0.2 µM): 0.37 | viability ([9]; 1 µM): 0.257 | viability ([9]; 5 µM): 0.197 | viability ([10]; 0.008 µM): 1.09 | viability ([10]; 0.04 µM): 0.934 | viability ([10]; 0.2 µM): 0.784 | viability ([10]; 1 µM): 0.809 | viability ([10]; 5 µM): 0.715 | viability ([11]; 0.008 µM): 0.722 | viability ([11]; 0.04 µM): 0.514 | viability ([11]; 0.2 µM): 0.379 | viability ([11]; 1 µM): 0.257 | viability ([11]; 5 µM): 0.217 | viability ([12]; 0.008 µM): 0.922 | viability ([12]; 0.04 µM): 0.883 | viability ([12]; 0.2 µM): 0.84 | viability ([12]; 1 µM): 0.82 | viability ([12]; 5 µM): 0.764 | viability ([13]; 0.008 µM): 0.746 | viability ([13]; 0.04 µM): 0.633 | viability ([13]; 0.2 µM): 0.617 | viability ([13]; 1 µM): 0.467 | viability ([13]; 5 µM): 0.459 | viability ([14]; 0.008 µM): 0.933 | viability ([14]; 0.04 µM): 0.915 | viability ([14]; 0.2 µM): 0.862 | viability ([14]; 1 µM): 0.811 | viability ([14]; 5 µM): 0.79 | viability ([15]; 0.008 µM): 0.891 | viability ([15]; 0.04 µM): 0.837 | viability ([15]; 0.2 µM): 0.869 | viability ([15]; 1 µM): 0.624 | viability ([15]; 5 µM): 0.532 | viability ([16]; 0.008 µM): 0.943 | viability ([16]; 0.04 µM): 0.813 | viability ([16]; 0.2 µM): 0.859 | viability ([16]; 1 µM): 1.08 | viability ([16]; 5 µM): 1.07 | viability ([17]; 0.008 µM): 0.701 | viability ([17]; 0.04 µM): 0.737 | viability ([17]; 0.2 µM): 0.629 | viability ([17]; 1 µM): 0.44 | viability ([17]; 5 µM): 0.215 | viability ([18]; 0.008 µM): 0.902 | viability ([18]; 0.04 µM): 0.93 | viability ([18]; 0.2 µM): 0.873 | viability ([18]; 1 µM): 0.716 | viability ([18]; 5 µM): 0.729
